Values quoted from earlier work in US8394309B2, “Resin film and method for producing it, polarizer and liquid crystal display device” (FUJIFILM Corporation, priority 2010, dated 2013).

Conditions: Table 1

Compound	Organic acid: Acid dissociation constant
CCCCCCCCCCC(=O)O [Undecanoic acid]	4.8
O=C(O)CN(CC(=O)O)Cc1ccccc1 [N-benzylimino-diacetic acid, N-benzyliminodiacetic acid]	3.2
CCCCCCCC/C=C/CCCCCCCC(=O)OCC(O)COC(=O)CC(O)(CC(=O)O)C(=O)O (centres unmarked) [Citric and oleic acid esters of glycerol, citric and oleic acid esters of glycerol]	3.2
CCCCCCCCCCCCN(CC(=O)O)CC(=O)O [lauramino-diacetic acid, lauraminodiacetic acid]	4.5
CCCCC(=O)O [Valeric acid, reference compound]	4.8
CCCCOB(OCCCC)OCCCC [Tributyl borate, reference compound]	6.0
O=C(O)CC(O)(CC(=O)O)C(=O)O [Citric acid, reference compound]	4.0
CCCCCCCC/C=C\CCCCCCCC(=O)O [Oleic acid]	4.9
